The values below come from patent US7432360B2, “Multi-dose erythropoietin formulations” (Aventis Pharmaceuticals Inc., priority 2005, dated 2008).

Read-outs that look alike come from different tables or passages of the source.

The nature of series [1]: Appearance of the solution when the preservative is used in the EPO formulation. The format is physicochemical. On the procedure:
Multi-dose EPO-containing solutions were formulated as sterile, non-pyrogenic, colorless aqueous solutions in water for injection at 10,000 units and 20,000 units concentration. Solutions prepared contained a 20 mM phosphate buffer (sodium phosphate monobasic monohydrate, and sodium phosphate dibasic heptahydrate), 0.01% w/v polysorbate 20 as an antiadsorbent, 0.45-0.8% w/v sodium chloride (depending on the preservative system that was used, the amount of sodium chloride was adjusted to produce an Osmolality of approximately 300 mOsm/kg), and a preservative system.

The nature of series [2]: Stability of EPO in preserved formulations, reverse phase HPLC assay (% label claim). The format is physicochemical. The following applies: in the presence of thimerosal.
Experimental: Prototype batches were made using these selected preservatives and placed on stability at 5° C. and 25° C. Samples were tested by a reverse phase HPLC method.
Detection of the EPO protein was monitored at 210 nm.
In series [3] the test system is indicator aerobic bacteria and molds. In words: Preservative challenge test (USP and EP criteria). The format is cell-based. The following applies: in the EPO formulation.
The conditions of series [4]: pH>3; cited from earlier work.
Setting [5] is: preservative in EPO formulation (phosphate buffer, polysorbate 20, sodium chloride, pH approx. 7.0).

On to `COC(=O)c1ccc(O)cc1` [Methyl paraben], for which the appearance of solution result in series [1] (setting [5]) is “hazy to cloudy”.

On to `C[CH2][Hg][S]c1ccccc1C(=O)[O-].[Na+]` [Thimerosal], for which the “chemical stability of the EPO formulation” value in series [2] is “good chemical stability”. In series [3], the preservative efficacy entry was “good preservative efficacy”. The appearance of solution entry in series [1] (setting [5]) is on record as “clear”. As to `CC(C)(O)C(Cl)(Cl)Cl` [chlorobutanol], in series [4], the stability of chlorobutanol entry is recorded as “not stable”. Consider `Cc1cccc(O)c1` [m-cresol], for which, in series [1] (setting [5]), the appearance of solution result was “hazy to cloudy”. Take `Oc1ccccc1` [phenol]: in series [1], the appearance of solution result is reported as “hazy to cloudy”. For the molecule `O=[N+]([O-])[O-].[Hg+][c]1ccccc1` [phenyl mercuric nitrate], in series [1] (setting [5]), the appearance of solution result is on record as “cloudy”.

Consider `CCCOC(=O)c1ccc(O)cc1` [propyl paraben], for which the appearance of solution result in series [1] (setting [5]) is “hazy to cloudy”.
